Target: RIPK2 (Homo sapiens (Human), UniProt O43353)
Experiment: RIPK2 inhibition, ADP-Glo Kinase Assay
Type: biochemical
Conditions: 8His-RIPK2 FL enzyme 8 nM, ATP 5 μM, 15 minutes pre-incubation, 60 minutes at 37° C., luminescence
Procedure: RIPK2 inhibition for compounds in Table 1 are shown in Table 3 and measured using the following method:
Materials: White, 384-well optiplates (cat.no. 6007290) were purchased from PerkinElmer. The V9103X ADP-Glo Kinase Assay Custom (including ultra-pure ATP) was purchased from Promega. 8His-RIPK2 FL was prepared in-house. All other materials were of highest grade commercially available.
Method: In a 384-well plate, test compound diluted in assay buffer (1% DMSO final) is mixed with 8His-RIPK2 FL enzyme (final concentration of 8 nM). After 15 minutes of pre-incubation at RT, ATP dissolved in assay buffer is added (final concentration 5 μM). The mixture is incubated for 60 minutes at 37° C. in a humidified incubator. Then, ADP Glo Reagent is added, followed by a 40 minute incubation at rt. Finally, Kinase Detection Reagent is added and the entire mixture is incubated for 40 min at RT. The luminescence signal is measured with an Envision reader to determine the amount of ADP produced. Assay buffer: 25 mM HEPES (4-(2-hydroxyethyl)-1-piperazinethanesulfonic acid), 0.1% BSA (bovine serum albumin), 10 mM MgCl2, 5 mM MnCl2, 50 mM KCl, 0.01% CHAPS (3-[(3-cholamidopropyl)dimethylammonio]-1-propanesulfonate), 10 μM Na3VO4, 1 mM DTT (dithiothreitol), pH 7.5 All plates contain wells with vehicle controls instead of compound (1% DMSO) as reference for the high signal (100% CTL (100% of control), high signal), and wells without enzyme as reference for low signal (0% CTL, low signal). The luminescent signal generated is proportional to the ADP produced and is correlated with enzyme activity. The analysis of the data is performed by the calculation of the percentage of ADP production in the presence of the test compound and RIPK2 as compared to the ADP production in the presence of RIPK2 plus 50 μM Gefitinib. (RLU (relative luminescence units) (sample)−RLU(low control))*100/(RLU(high value)−RLU(low control)) [RLU=relative luminescence units].

RIPK2, sequence (O43353 whole entry): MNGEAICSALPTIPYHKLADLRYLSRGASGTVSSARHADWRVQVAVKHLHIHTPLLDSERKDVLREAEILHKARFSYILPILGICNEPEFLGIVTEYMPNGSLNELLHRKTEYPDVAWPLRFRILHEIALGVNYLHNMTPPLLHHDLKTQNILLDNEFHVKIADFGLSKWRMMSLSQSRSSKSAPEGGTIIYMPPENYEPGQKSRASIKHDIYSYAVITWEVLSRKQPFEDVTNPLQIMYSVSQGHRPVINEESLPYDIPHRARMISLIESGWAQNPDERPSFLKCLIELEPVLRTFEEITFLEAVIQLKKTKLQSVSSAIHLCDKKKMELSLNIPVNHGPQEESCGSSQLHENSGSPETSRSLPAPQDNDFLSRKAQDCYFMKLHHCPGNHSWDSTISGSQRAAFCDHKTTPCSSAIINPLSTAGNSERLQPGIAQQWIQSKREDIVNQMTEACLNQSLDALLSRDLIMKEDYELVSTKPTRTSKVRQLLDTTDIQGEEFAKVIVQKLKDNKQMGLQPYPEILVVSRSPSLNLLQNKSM

Row | Compound | IC50 [nM]
1 | Cc1ccc(C(=O)NC2CC2)cc1-c1cnn(-c2cncc(NC(=O)C(C)C)c2)c1 [Example 113, N-cyclopropyl-4-methyl-3-{1-[5-(2-methylpropanamido)pyridin-3-yl]-1H-pyrazol-4-yl}benzamide] | 3.5
2 | Cc1ccc(C(=O)NC2CC2)cc1-c1cnn(-c2cncc(NC(=O)CC(C)C)c2)c1 [Example 114, N-cyclopropyl-4-methyl-3-{1-[5-(3-methylbutanamido)pyridin-3-yl]-1H-pyrazol-4-yl}benzamide] | 2.7
3 | Cc1ccc(C(=O)NC2CC2)cc1-c1cnn(-c2cncc(NC(=O)C3CCC3)c2)c1 [Example 115, 3-[1-(5-cyclobutaneamidopyridin-3-yl)-1H-pyrazol-4-yl]-N-cyclopropyl-4-methylbenzamide] | 2.7
4 | Cc1ccc(C(=O)NC2CC2)cc1-c1cnn(-c2cncc(NC(=O)CF)c2)c1 [Example 116, N-cyclopropyl-3-{1-[5-(2-fluoroacetamido)pyridin-3-yl]-1H-pyrazol-4-yl}-4-methylbenzamide] | 7.2
5 | CCC(=O)Nc1cncc(-n2cc(-c3cc(C(=O)NC4CC4)ccc3C)cn2)c1 [Example 117, N-cyclopropyl-4-methyl-3-[1-(5-propanamidopyridin-3-yl)-1H-pyrazol-4-yl]benzamide] | 3.4
6 | Cc1ccc(C(=O)NC2CC2)cc1-c1cnn(-c2cncc(N(C)C)n2)c1 [Example 118, N-cyclopropyl-3-{1-[6-(dimethylamino)pyrazin-2-yl]-1H-pyrazol-4-yl}-4-methylbenzamide] | 110
7 | Cc1cncc(-n2cc(-c3cc(C(=O)NC4CC4)ccc3C)cn2)c1 [Example 119, N-cyclopropyl-4-methyl-3-[1-(5-methylpyridin-3-yl)-1H-pyrazol-4-yl]benzamide] | 24
8 | Cc1ccc(C(=O)NC2CC2)cc1-c1cnn(-c2cncc(NC(=O)C(C)(C)C)c2)c1 [Example 121, N-cyclopropyl-3-{1-[5-(2,2-dimethylpropanamido)pyridin-3-yl]-1H-pyrazol-4-yl}-4-methyl-benzamide] | 13
9 | Cc1ccc(C(=O)NC2CC2)cc1-c1cnn(-c2cncc(NS(C)(=O)=O)c2)c1 [Example 122, N-cyclopropyl-3-[1-(5-methanesulfonamidopyridin-3-yl)-1H-pyrazol-4-yl]-4-methyl-benzamide] | 9.5
10 | CN(C)c1cncc(-n2cc(-c3cc(C(=O)NC4CC4)c(F)cc3Cl)cn2)n1 [Example 123, 4-chloro-N-cyclopropyl-5-{1-[6-(dimethylamino)pyrazin-2-yl]-1H-pyrazol-4-yl}-2-fluorobenzamide] | 43
11 | CC(=O)N1CC(Oc2cncc(-n3cc(-c4cc(C(=O)NC5CC5)ccc4C)cn3)c2)C1 [Example 124, 3-(1-{5-[(1-acetylazetidin-3-yl)oxy]pyridin-3-yl}-1H-pyrazol-4-yl)-N-cyclopropyl-4-methylbenzamide] | 13
12 | Cc1ccc(C(=O)NC2CC2)cc1-c1cnn(-c2cncc([C@H]3CCC(=O)N3C)c2)c1 [Example 125, N-cyclopropyl-4-methyl-3-(1-{5-[(2R)-1-methyl-5-oxopyrrolidin-2-yl]pyridin-3-yl}-1H-pyrazol-4-yl)benzamide] | 130
13 | CC(=O)N1CC[C@@H](Oc2cncc(-n3cc(-c4cc(C(=O)NC5CC5)ccc4C)cn3)c2)C1 [Example 126, 3-[1-(5-{[(3R)-1-acetylpyrrolidin-3-yl]oxy}pyridin-3-yl)-1H-pyrazol-4-yl]-N-cyclopropyl-4-methyl-benzamide] | 20
14 | COc1cncc(-n2cc(-c3cc(C(=O)NC4CC4)ccc3C)cn2)n1 [Example 127, N-cyclopropyl-3-[1-(6-methoxy-pyrazin-2-yl)-1H-pyrazol-4-yl]-4-methylbenzamide] | 86
15 | Cc1ccc(C(=O)NC2CC2)cc1-c1cnn(-c2cncc(C3CCOCC3)n2)c1 [Example 128, N-cyclopropyl-4-methyl-3-{1-[6-(oxan-4-yl)pyrazin-2-yl]-1H-pyrazol-4-yl}benzamide] | 94

From patent publication US10138222B2, “Substituted benzamides as RIPK2 inhibitors” (Boehringer Ingelheim International GmbH, priority 2016, dated 2018)
